One assay has as its target T1, human CB1 receptor (Homo sapiens, UniProt P21554).
T1 construct: expressed in transfected cells; host or cells: human embryonic kidney (HEK) cells, Semliki Forest Virus system, membrane preparations
In words: CB1 receptor affinity, [3H]-CP-55,940 displacement, HEK cell membranes. The note with it: 10 μM compound, radioligand [3H]-CP-55,940; read-out: CB1 receptor affinity [% inhibition @ 10 μM]. It counts as binding. The procedure, abridged: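 Membranes from HEK cells transiently expressing human CB1 (Semliki Forest Virus system) incubated with [3H]-CP-55,940 with or without test compound. Bound and free ligand separated by glass-fibre filtration and bound radioactivity counted by scintillation. Compounds tested at 10 μM, values reported as % inhibition of radioligand binding.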

A further assay concerns ABCA1 protein. The assay can be described thus: Detection of upregulation of ABCA1 protein in THP-1 macrophage cells (ApoA-I binding, high content imaging). It counts as cell-based. The note with it: 24 hrs with compound, AlexaFluor 647 ApoA-I binding, read-out: ABCA1 protein increasing efficacy EC50.
The target of the next assay is T2, human CB2 receptor (Homo sapiens, UniProt P34972).
T2 construct: expressed in transfected cells; host or cells: human embryonic kidney (HEK) cells, Semliki Forest Virus system, membrane preparations
T2 sequence (P34972 whole entry): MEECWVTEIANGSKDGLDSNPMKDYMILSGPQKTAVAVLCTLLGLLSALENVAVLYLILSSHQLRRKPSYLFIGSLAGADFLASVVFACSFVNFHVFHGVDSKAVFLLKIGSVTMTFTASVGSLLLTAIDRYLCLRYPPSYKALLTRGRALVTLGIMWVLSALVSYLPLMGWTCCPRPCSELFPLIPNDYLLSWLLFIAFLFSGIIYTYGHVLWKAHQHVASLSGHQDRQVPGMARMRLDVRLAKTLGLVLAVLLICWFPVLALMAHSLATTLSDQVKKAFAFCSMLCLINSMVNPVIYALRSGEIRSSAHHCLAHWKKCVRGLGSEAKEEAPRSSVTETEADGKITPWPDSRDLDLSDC
In words: CB2 receptor affinity, [3H]-CP-55,940 displacement, HEK cell membranes. It counts as binding. The note with it: 10 μM compound, radioligand [3H]-CP-55,940. The procedure, abridged: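 Membranes from HEK cells transiently expressing human CB2 (Semliki Forest Virus) incubated with [3H]-CP-55,940 ± compound at 10 μM. Bound ligand separated by glass-fibre filtration and counted by scintillation; reported as % inhibition at 10 μM.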

T1 sequence (P21554 whole entry): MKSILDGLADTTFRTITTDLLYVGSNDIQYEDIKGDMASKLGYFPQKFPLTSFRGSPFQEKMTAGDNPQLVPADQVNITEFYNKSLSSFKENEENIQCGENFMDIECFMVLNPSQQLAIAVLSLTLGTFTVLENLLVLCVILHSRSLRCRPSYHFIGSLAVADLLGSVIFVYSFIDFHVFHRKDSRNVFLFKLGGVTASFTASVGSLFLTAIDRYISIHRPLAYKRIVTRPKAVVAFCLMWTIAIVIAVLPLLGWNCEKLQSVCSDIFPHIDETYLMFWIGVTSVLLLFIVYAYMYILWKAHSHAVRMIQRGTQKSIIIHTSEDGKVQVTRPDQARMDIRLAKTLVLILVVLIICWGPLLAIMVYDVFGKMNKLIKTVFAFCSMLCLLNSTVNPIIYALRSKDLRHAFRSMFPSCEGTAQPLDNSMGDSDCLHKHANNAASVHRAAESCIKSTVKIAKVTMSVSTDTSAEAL

`COc1cc(CNC(=O)c2cnc(OCC(F)(F)F)c(-c3ccc(F)c(F)c3)c2)on1` [Example 99, 5-(3,4-difluorophenyl)-N-((3-methoxyisoxazol-5-yl)methyl)-6-(2,2,2-trifluoroethoxy)nicotinamide]: the inhibition at 10 µM is 20% on human CB1 receptor and 9% on human CB2 receptor. The 50% effective concentration (EC50) with ABCA1 protein worked out at 1250 nM.

For `O=C(NCc1nc(C(F)(F)F)no1)c1cnc(OCC(F)(F)F)c(-c2ccc3nonc3c2)c1` [Example 100, 5-Benzo[1,2,5]oxadiazol-5-yl-6-(2,2,2-trifluoro-ethoxy)-N-(3-trifluoromethyl-[1,2,4]oxadiazol-5-yl-methyl)-nicotinamide], the inhibition at 10 µM turned out to be 15% at human CB1 receptor and 8% at human CB2 receptor. Further, the EC50 with ABCA1 protein amounted to 580 nM.

By inhibition is commonly meant the relative decrease from the control value, in per cent. The term EC50 denotes the midpoint of the concentration-response curve.

For the origin of these results see US9090599B2, “Heteroarylmethyl amides” (Hoffman-La Roche Inc., priority 2010, dated 2015).
